What was measured:
IL-6 = experiment: Whole bovine blood assay, LPS-induced IL-6; format: cell-based; settings: fresh whole bovine blood, LPS stimulant, top drug concentration 250 μM
TNF-α = experiment: Whole bovine blood assay, LPS-induced TNF-α; format: cell-based; settings: fresh whole bovine blood, LPS stimulant, top drug concentration 250 μM
Method: Whole Blood Assay-Fresh whole bovine blood samples were collected into heparinized vacutainer tubes. Assay plates were prepared with 25 μL of drug diluted in PBS at varying concentration in 96 round bottom wells, then 225 μL of blood was added and plates incubated at 37° C. for 4 hours. Cells were stimulated with LPS (or PBS for controls) by adding 25 μL to the plates at a final concentration of 1 μg/mL and incubated at 37° C. for 18 hours. To collect plasma, plates were centrifuged at 2,000×g for 10 minutes and 100 μL of supernatant was transferred to a 96 well polypropylene plate that was sealed and stored at −80° C. Samples were assayed for cytokines using the Meso Scale Discovery (MSD) platform (described below). This same MSD platform was used to assess cytokines in the plasma collected directly from drug treated animals.
Cytokine Detection—An MSD U-Plex cytokine assay was developed following the MSD U-Plex protocol guide and included biotinylated capture antibodies against: bovine Interleukin (IL)-1β (Biorad), bovine IL-6 (R&D Systems) and bovine tumor necrosis factor (TNF)-α (R&D Systems). […] Assay calibrators (Kingfisher) were diluted to a concentration of […] in control lithium heparin plasma, followed by 4-fold serial dilutions into plasma. […] Antibodies were used at the following concentrations: anti-IL-1β at 1 μg/mL, anti-IL-6 at 1 μg/mL and anti-TNF-α at 0.5 μg/mL. Cytokines were quantified according to manufacturer's instructions using a chemiluminescent readout. In brief, 0.5 mL of all biotinylated antibodies were diluted to 10 μg/mL with Diluent 100 and paired to their respective linkers by adding 750 μL of supplied Linker solution and incubated for 30 minutes followed by addition of Stop solution for another 30 minutes. The linked antibodies were then diluted 10-fold into Stop solution. Plates were coated by adding 50 μL of antibody solutions per well and incubated covered and shaking for 1 hour at room temperature. Plates were washed three times with PBS/Tween20 prior to samples or standards being added at 30 μL per well and incubated as above. Plates were washed three times before detection antibodies were added along with 2% goat and rabbit serum to block and incubated same as above. Plates were washed a further three times before addition of 150 μL 2X Read buffer and read immediately on the SI6000 instrument (MSD). For soluble protein levels, a BCA protein kit (Thermofisher) was used. The cytokine concentrations (pg/mL) were normalized to the total protein levels for each sample. [Bassel et. al., BMC Veterinary Research (2020) 16:168]
Therefore, a fresh whole bovine blood assay was developed with LPS as a stimulant (TLR-4 agonist) and with IL-1β and TNF-α as the read-out. Compounds of the invention were evaluated against a positive control for their ability to inhibit LPS-induced IL-1β and TNF-α as an overall evaluation of relative potency and modulation of target pathways.
TNFα is a cell signaling protein, cytokine, that plays a key role in both acute and chronic inflammation. In the bovine whole blood in vitro screening assay the inhibition of TNFα as induced by stimulation by lipopolysaccharide (LPS) and as measured by half the maximal inhibitory concentration (IC50) is recognized as the primary biomarker of immunomodulation potency upon pretreatment with the compounds of the invention. IL-1 B is a mediator of the inflammation response and is involved in a number of cellular activities including proliferation, differentiation and apoptosis. IL-1ß is also released upon cellular stress or cytotoxicity or upon TLR stimulation. […] In order to estimate a therapeutic index from the in vitro assay a differential between the TNFα IC50 (immunomodulation potency) versus the perceived cellular toxicity concentration (IL-1β release or overstimulation) was utilized.

| Structure (SMILES) | IC50 (IL-6; Bos taurus) [µM] | IC50 (TNF-α; Bos taurus) [µM] | IC50 (IL-6) [µM] | IC50 (TNF-α) [µM] |
| --- | --- | --- | --- | --- |
| CCCNC[C@]1(O)[C@H](C)O[C@@H](O[C@H]2[C@H](C)[C@@H](O[C@@H]3O[C@H](C)C[C@H](N(CCC)S(=O)(=O)c4ccc(Cl)cc4)[C@H]3O)[C@](C)(O)C[C@@H](C)CN[C@H](C)[C@@H](O)[C@](C)(O)[C@@H](CC)OC(=O)[C@@H]2C)C[C@@]1(C)OC [Example B-142] | 9 | 8 |  |  |
| CCCNC[C@]1(O)[C@H](C)O[C@@H](O[C@H]2[C@H](C)[C@@H](O[C@@H]3O[C@H](C)C[C@H](N(CC(C)C)S(=O)(=O)c4ccc(OC)cc4)[C@H]3O)[C@](C)(O)C[C@@H](C)CN[C@H](C)[C@@H](O)[C@](C)(O)[C@@H](CC)OC(=O)[C@@H]2C)C[C@@]1(C)OC [Example B-149] |  |  | 8 | 7 |
| CCCNC[C@]1(O)[C@H](C)O[C@@H](O[C@H]2[C@H](C)[C@@H](O[C@@H]3O[C@H](C)C[C@H](N(CC(C)C)S(=O)(=O)c4ccc(Cl)cc4)[C@H]3O)[C@](C)(O)C[C@@H](C)CN[C@H](C)[C@@H](O)[C@](C)(O)[C@@H](CC)OC(=O)[C@@H]2C)C[C@@]1(C)OC [Example B-150] |  |  | 5 | 4 |
| CCCNC[C@]1(O)[C@H](C)O[C@@H](O[C@H]2[C@H](C)[C@@H](O[C@@H]3O[C@H](C)C[C@H](N(C)S(=O)(=O)c4ccc(Cl)cc4)[C@H]3O)[C@](C)(O)C[C@@H](C)CN(CCC)[C@H](C)[C@@H](O)[C@](C)(O)[C@@H](CC)OC(=O)[C@@H]2C)C[C@@]1(C)OC [Example B-151] |  |  | 10 | 8 |
| CCCNC[C@]1(O)[C@H](C)O[C@@H](O[C@H]2[C@H](C)[C@@H](O[C@@H]3O[C@H](C)C[C@H](N(C)S(=O)(=O)c4ccc(Cl)cc4)[C@H]3O)[C@](C)(O)C[C@@H](C)CN(C)[C@H](C)[C@@H](O)[C@](C)(O)[C@@H](CC)OC(=O)[C@@H]2C)C[C@@]1(C)OC [Example B-153] |  |  | 10 | 7 |
| CCCNC[C@]1(O)[C@H](C)O[C@@H](O[C@H]2[C@H](C)[C@@H](O[C@@H]3O[C@H](C)C[C@H](N(C)S(=O)(=O)c4ccc(C)cc4)[C@H]3O)[C@](C)(O)C[C@@H](C)CN(CCC)[C@H](C)[C@@H](O)[C@](C)(O)[C@@H](CC)OC(=O)[C@@H]2C)C[C@@]1(C)OC [Example B-154] |  |  | 15 | 7 |
| CCCN1C[C@H](C)C[C@@](C)(O)[C@H](O[C@@H]2O[C@H](C)C[C@H](N(C)S(N)(=O)=O)[C@H]2O)[C@@H](C)[C@H](O[C@H]2C[C@@](C)(OC)[C@](O)(CNc3ccc(OC)cc3)[C@H](C)O2)[C@@H](C)C(=O)O[C@H](CC)[C@@](C)(O)[C@H](O)[C@H]1C [Example B-157] |  |  | 31 | 22 |

Second part, the molecule after the results:

| IC50 (IL-6; Bos taurus) [µM] | IC50 (TNF-α; Bos taurus) [µM] | IC50 (IL-6) [µM] | IC50 (TNF-α) [µM] | Structure (SMILES) |
| --- | --- | --- | --- | --- |
|  |  | 5 | 6 | CC[C@H]1OC(=O)[C@H](C)[C@@H](O[C@H]2C[C@@](C)(OC)[C@](O)(CN3CCCCC3)[C@H](C)O2)[C@H](C)[C@@H](O[C@@H]2O[C@H](C)C[C@H](N(C)S(=O)(=O)c3ccc(C(F)(F)F)cc3)[C@H]2O)[C@](C)(O)C[C@@H](C)CN[C@H](C)[C@@H](O)[C@]1(C)O [Example C-18] |
|  |  | 7 | 5 | CC[C@H]1OC(=O)[C@H](C)[C@@H](O[C@H]2C[C@@](C)(OC)[C@](O)(CN3CCCCC3)[C@H](C)O2)[C@H](C)[C@@H](O[C@@H]2O[C@H](C)C[C@H](N(C)S(=O)(=O)c3ccc(F)cc3)[C@H]2O)[C@](C)(O)C[C@@H](C)CN[C@H](C)[C@@H](O)[C@]1(C)O [Example C-19] |
|  |  | 6 | 4 | CC[C@H]1OC(=O)[C@H](C)[C@@H](O[C@H]2C[C@@](C)(OC)[C@](O)(CN3CCCCC3)[C@H](C)O2)[C@H](C)[C@@H](O[C@@H]2O[C@H](C)C[C@H](N(C)S(=O)(=O)Nc3ccc(C(C)(C)C)cc3)[C@H]2O)[C@](C)(O)C[C@@H](C)CN[C@H](C)[C@@H](O)[C@]1(C)O [Example C-22] |
|  |  | 10 | 9 | CC[C@H]1OC(=O)[C@H](C)[C@@H](O[C@H]2C[C@@](C)(OC)[C@](O)(CN3CCCCC3)[C@H](C)O2)[C@H](C)[C@@H](O[C@@H]2O[C@H](C)C[C@H](N(C)S(=O)(=O)Nc3cccc(Cl)c3)[C@H]2O)[C@](C)(O)C[C@@H](C)CN[C@H](C)[C@@H](O)[C@]1(C)O [Example C-23] |
|  |  | 25 | 25 | CC[C@H]1OC(=O)[C@H](C)[C@@H](O[C@H]2C[C@@](C)(OC)[C@](O)(CN3CCCCC3)[C@H](C)O2)[C@H](C)[C@@H](O[C@@H]2O[C@H](C)C[C@H](N(C)S(=O)(=O)Nc3ccc(Cl)c(Cl)c3)[C@H]2O)[C@](C)(O)C[C@@H](C)CN[C@H](C)[C@@H](O)[C@]1(C)O [Example C-28] |
|  |  | 8 | 5 | CC[C@H]1OC(=O)[C@H](C)[C@@H](O[C@H]2C[C@@](C)(OC)[C@](O)(CN3CCCCC3)[C@H](C)O2)[C@H](C)[C@@H](O[C@@H]2O[C@H](C)C[C@H](N(C)S(=O)(=O)Nc3ccc(C)cc3)[C@H]2O)[C@](C)(O)C[C@@H](C)CN[C@H](C)[C@@H](O)[C@]1(C)O [Example C-32] |
|  |  | 7 | 7 | CC[C@H]1OC(=O)[C@H](C)[C@@H](O[C@H]2C[C@@](C)(OC)[C@](O)(CN3CCCCC3)[C@H](C)O2)[C@H](C)[C@@H](O[C@@H]2O[C@H](C)C[C@H](N(C)S(=O)(=O)Nc3ccc(C)c(C)c3)[C@H]2O)[C@](C)(O)C[C@@H](C)CN[C@H](C)[C@@H](O)[C@]1(C)O [Example C-33] |
|  |  | 9 | 6 | CC[C@H]1OC(=O)[C@H](C)[C@@H](O[C@H]2C[C@@](C)(OC)[C@](O)(CN3CCCCC3)[C@H](C)O2)[C@H](C)[C@@H](O[C@@H]2O[C@H](C)C[C@H](N(C)S(=O)(=O)Nc3ccc(C(F)(F)F)cc3)[C@H]2O)[C@](C)(O)C[C@@H](C)CN(CC)[C@H](C)[C@@H](O)[C@]1(C)O [Example C-36] |
|  |  | 4 | 5 | CCCN([C@H]1C[C@@H](C)O[C@@H](O[C@@H]2[C@@H](C)[C@H](O[C@H]3C[C@@](C)(OC)[C@](O)(CN4CCCCC4)[C@H](C)O3)[C@@H](C)C(=O)O[C@H](CC)[C@@](C)(O)[C@H](O)[C@@H](C)NC[C@H](C)C[C@@]2(C)O)[C@@H]1O)S(=O)(=O)c1ccc(Cl)cc1 [Example C-40] |
|  |  | 6 | 6 | CC[C@H]1OC(=O)[C@H](C)[C@@H](O[C@H]2C[C@@](C)(OC)[C@](O)(CN3CCCCC3)[C@H](C)O2)[C@H](C)[C@@H](O[C@@H]2O[C@H](C)C[C@H](N(CC(C)C)S(=O)(=O)c3ccc(Cl)cc3)[C@H]2O)[C@](C)(O)C[C@@H](C)CN[C@H](C)[C@@H](O)[C@]1(C)O [Example C-42] |
|  |  | 4 | 5 | CC[C@H]1OC(=O)[C@H](C)[C@@H](O[C@H]2C[C@@](C)(OC)[C@](O)(CN3CCCCC3)[C@H](C)O2)[C@H](C)[C@@H](O[C@@H]2O[C@H](C)C[C@H](N(C)S(=O)(=O)c3nccn3C)[C@H]2Oc2ccc(F)cc2)[C@](C)(O)C[C@@H](C)CN[C@H](C)[C@@H](O)[C@]1(C)O [Example C-56] |

— patent US20250236616A1, “IMMUNOMODULATING AZALIDES” (Zoetis Services LLC, priority 2021, published 2025)
